Measured values reported in patent US12691107B2, “Methods for the treatment and prevention of lung infections caused by gram-positive bacteria, fungus, or virus by administration of tafenoquine” (priority 2020, dated 2026).
≈ marks a conversion by molar mass, not a printed value. Like-named read-outs stand apart in the source and are kept apart here.

Key:
[1] = test system: Sporothrix sp.; assay: Antifungal MIC (RPMI-1640 microdilution); type: cell-based
[2] = test system: Apophysomyces sp.; assay: Antifungal MIC (RPMI-1640 microdilution); type: cell-based
[3] = test system: Aspergillus fumigatus; assay: Antifungal MIC (RPMI-1640 microdilution); type: cell-based
[4] = test system: Exserohilum sp.; assay: Antifungal MIC (RPMI-1640 microdilution); type: cell-based
[5] = test system: Scedosporium sp.; assay: Antifungal MIC (RPMI-1640 microdilution); type: cell-based
[6] = test system: Blastomyces dermatitidis; assay: Antifungal MIC (RPMI-1640 microdilution); type: cell-based
[7] = test system: Enterococcus faecium; assay: Antibacterial MIC (broth microdilution); type: cell-based; conditions: isolate 1593
[8] = test system: E. coli; assay: Antibacterial MIC (broth microdilution); type: cell-based
Experimental: Growth Medium—Cation adjusted Mueller-Hinton broth was used as the test medium. Broth for panel preparation was prepared from commercial dehydrated medium (Difco formulation, BD Diagnostics, catalog number 275730).
Dilution of Investigational Agents—Polystyrene test tubes were used to prepare the drug dilutions and sterile U-shaped 96-well polystyrene microtiter trays were used for performing the MIC assays. Stock solutions of the investigational agents were prepared at concentrations 100-times the highest concentration to be tested (6400-1.25 μg/ml) using dimethyl sulfoxide. Aliquots of the stock solutions were dispensed into polypropylene vials and stored at −20° C. Further dilutions (1:50) were made in the culture medium (cation-adjusted Mueller-Hinton medium).
After the dilutions of the working 2-fold investigational antibacterial solutions were prepared, 50 μL of each concentration was transferred into rows of the first 10 wells of each 12-well column of the U-shaped disposable 96-well microtiter trays using a multichannel pipettor. The 11th well in each row served as the sterility control, and the 12th well contained only culture medium to serve as the growth control for each isolate. In like manner, the control drug for the organism being tested was prepared in a separate 96 well panel exactly as described above. A 50 μL volume of the standardized inoculum suspension of each test isolate was prepared in culture medium to directly inoculate each test well of the drug containing microtiter tray.
Inoculum Preparation—Colonies of each strain generated on sheep blood agar plates with overnight growth at 35° C. in ambient air were used to directly prepare a suspension equivalent in density to the 0.5 McFarland opacity standard. The exact turbidity of each suspension was determined using a desktop portable photometer. For panels containing 2× drug concentrations, a 1:100 dilution of the McFarland organism suspension was prepared in cation-adjusted Mueller-Hinton broth and 50 μL aliquots of each test (and control) strain was added to each well of the designated rows of the microtiter trays using a multichannel pipettor. The target inoculum concentration was 5×10^5 CFU/ml in each well.
Trays were removed and each well were inspected for evidence of growth (turbidity). The MIC was defined as the lowest concentration of the investigational agent and the control drug that prevents visibly discernible growth in the test wells.

[9] = Calculation of RLTEC and MPEC50 for tafenoquine against SARS-CoV-2; conditions: human, lung/whole blood; assumed to be the same as rats; read-out: Ratio of lung to whole blood concentration for humans
Experimental: (§1) Pneumocystis was used as a model organism against which to set minimum requirements for the maximum acceptable in vitro EC50 of tafenoquine against SARS-CoV-2 in vitro. Pneumocystis was selected because it is the only lung pathogen for which both in vitro and in vivo data are available for tafenoquine. The maximum lung tissue concentration [LTsscmaxrats] at the minimum dose of tafenoquine necessary to inhibit the growth of Pneumocystis in vivo in a treatment modality was calculated using relevant data derived from the scientific literature [see Table 7]. The ratio of that concentration to the EC50 against Pneumocystis in vitro RLTEC was determined [see Table 7]. The plasma steady state Cmax [Psscmaxhumans] at the approved prophylactic dose is known from the ARAKODA product insert [60 Degrees Pharmaceuticals. 2018. Product Insert for ARAKODA.]. The maximum steady state lung tissue concentration [LTsscmaxhumans] of that dose was determined using relevant metrics from the literature. The maximum permissible EC50 (“MPEC50”) was then defined by dividing the LTsscmaxhumans by the RLTEC [Table 7].
(§2) The steady state Cmax at the approved prophylactic dose is known based on prior modeling. The maximum steady state lung tissue concentration of that dose was estimated to be 389 microM [Table 7].
(§3) [Note: These calculated values provided in this example were recalculated and updated in the present application and therefore may differ from what is presented in some cross-referenced U.S. Provisional Applications.]

[10] = test system: SARS-CoV-2; assay: as above
Experimental: as §1, §2, §3

[11] = test system: Vero E6 cells; conditions: African green monkey
[12] = female, rat, in vivo, 2 mg/kg
[13] = test system: P. falciparum; conditions: seven strains, three repeat assays; cited from earlier work
[14] = in vivo, cited from earlier work
[15] = Plasma levels of tafenoquine in humans; conditions: human, in vivo
[16] = test system: Pneumocystis; assay: Pneumocystis pneumonia in rats, therapy or prophylaxis
[17] = read-out: MIC 100% inhibition, isolate AF293

COc1cc(C)c2c(Oc3cccc(C(F)(F)F)c3)c(OC)cc(NC(C)CCCN)c2n1.O=C(O)CCC(=O)O (centres unmarked) [Tafenoquine Succinate]
MIC50 ([1]; read-out: MIC 50% inhibition, isolate Sporo1): 2 µg/mL
MIC50 ([1]; read-out: MIC 50% inhibition, isolate Sporo2): 1 µg/mL
MIC50 ([1]; read-out: MIC 50% inhibition, isolate Sporo3): 2 µg/mL
MIC ([1]; read-out: MIC 100% inhibition, isolate Sporo1): 4 µg/mL
MIC ([1]; read-out: MIC 100% inhibition, isolate Sporo2): 2 µg/mL
MIC ([1]; read-out: MIC 100% inhibition, isolate Sporo3): 4 µg/mL
MIC50 ([2]; read-out: MIC 50% inhibition, isolate Apo1): 8 µg/mL
MIC50 ([2]; read-out: MIC 50% inhibition, isolate Apo2): 2 µg/mL
MIC50 ([2]; read-out: MIC 50% inhibition, isolate Apo3): 16 µg/mL
MIC ([2]; read-out: MIC 100% inhibition, isolate Apo1): 8 µg/mL
MIC ([2]; read-out: MIC 100% inhibition, isolate Apo2): 4 µg/mL
MIC ([2]; read-out: MIC 100% inhibition, isolate Apo3): 32 µg/mL
MIC50 ([3]; read-out: MIC 50% inhibition, isolate AF293): 8 µg/mL
MIC50 ([3]; read-out: MIC 50% inhibition, isolate D115-106): 4 µg/mL
MIC50 ([3]; read-out: MIC 50% inhibition, isolate D115-116): 4 µg/mL
MIC [3, 17]: 16 µg/mL
MIC ([3]; read-out: MIC 100% inhibition, isolate D115-106): 8 µg/mL
MIC ([3]; read-out: MIC 100% inhibition, isolate D115-116): 4 µg/mL
MIC50 ([4]; read-out: MIC 50% inhibition, isolate Exser1): 4 µg/mL
MIC ([4]; read-out: MIC 100% inhibition, isolate Exser1): 8 µg/mL
MIC50 ([5]; Scedosporium, read-out: MIC 50% inhibition, isolate 00-180): 4 µg/mL
MIC ([5]; Scedosporium, read-out: MIC 100% inhibition, isolate 00-180): 8 µg/mL
MIC ([5]; Scedosporium, read-out: MIC 100% inhibition, isolate LPI): 8 µg/mL
MIC ([5]; Scedosporium, read-out: MIC 100% inhibition, isolate Scedo1): 4 µg/mL
MIC 50% inhibition ([5]; isolate LPI): 4 µg/mL
MIC 50% inhibition ([5]; isolate Scedo1): 4 µg/mL
MIC50 ([6]; read-out: MIC 50% inhibition, isolate Blasto1): 1 µg/mL
MIC50 ([6]; read-out: MIC 50% inhibition, isolate Blasto2): 4 µg/mL
MIC50 ([6]; read-out: MIC 50% inhibition, isolate Blasto3): 8 µg/mL
MIC ([6]; read-out: MIC 100% inhibition, isolate Blasto1): 2 µg/mL
MIC ([6]; read-out: MIC 100% inhibition, isolate Blasto2): 4 µg/mL
MIC ([6]; read-out: MIC 100% inhibition, isolate Blasto3): 8 µg/mL
MIC [7]: 8 µg/mL
MIC ([8]; Escherichia coli, ATCC25922, isolate ATCC 25922, read-out: MIC): > 64 µg/mL
MIC ([8]; Escherichia coli, isolate J4243 (MO72), read-out: MIC): > 64 µg/mL
MIC ([8]; isolate J4244 (JJ1886)): >64 µg/mL

COc1cc(C)c2c(Oc3cccc(C(F)(F)F)c3)c(OC)cc(NC(C)CCCN)c2n1 (centres unmarked) [Tafenoquine, N(4)-[2,6-Dimethoxy-4-methyl-5-[3-(trifluoromethyl)phenoxy]quinolin-8-yl]pentane-1,4-diamine]
MIC [3, 17]: 16 µg/mL (≈ 34.5 µM)
Kp [9]: 250
LTsscmaxhumans (maximum steady state lung tissue concentration) ([10]; approved prophylactic dose): 389 µM
LTcmaxrats (maximum lung tissue concentration) ([10]; plasma Cmax multiplied by 2.6 and 250): 23,296 ng/ml
CC50 [11]: 37.2 µM
Estimate of plasma concentration following a single dose of 2 mpk in rats [12]: 35.84 ng/mL
fold more potent than primaquine (average 50% inhibitory concentrations) [13]: 7.1 fold
Cmax of a single dose of 200 mg ([14]; 200 mg): [147 ng/ml *4.4].
Cmax following a single dose [14]: approximately 90 nanogram/ml
dose proportionality of pharmacokinetics [14]: proportional with the dose administered in the therapeutic range
steady state Cmax [14]: 300 nanogram/ml
steady state concentrations in 95% of individuals [14]: above 80 nanogram/ml
ratio between steady state and single dose concentrations [15]: approximately 3.3
corresponding steady state plasma level ([16]; prophylaxis): ~36 nanogram/ml
effective minimum inhibitory concentration in lungs ([16]; prophylaxis): 23 micrograms/g
corresponding steady state plasma level ([16]; treatment): approximately 125 nanogram/ml
effective minimum inhibitory concentration in lungs ([16]; treatment): 81 micrograms/g
